Test results from patent US3989837A, “Pharmaceutical compositions” (Chinoin Gyogyszer-es Vegyeszeti Termekek Gyara RT, priority 1972, dated 1976).
“And” between values parts separate entries of the source, which are not always exact repeats. Equal values may be shown once.

What was measured:
writhing syndrome = experiment: Writhing syndrome, comparison with Indomethacine (Table 7); assay type: in vivo, mouse; conditions: male mice
Method: The tests were carried out on male mice each weighing 15 to 18 g., starved for 16 hours prior to treatment. 0.1 ml./10 g. body weight of 1% acetic acid solution was injected intraperitoneally to the animals. The sterile inflammation occurred on the action of acetic acid provoked a characteristic syndrome (writhing). The number of writhings was counted during an observation period of 20 minutes, starting 15 minutes after the administration of acetic acid. The substance to be tested was administered orally as a suspension, in a dosage of 0.1 ml./10 g. body weight 2 to 4 hours before the acetic acid injection. The average number of writhings observed for the treated animals was compared to that observed in the control group, and the percentage inhibition was calculated from the difference.

carrageenine oedema = experiment: Rat paw oedema, carrageenine (Table 5'); assay type: in vivo; conditions: female rats, p.o. 10 mg./kg.; for Effect % (average), inhibition of carrageenine oedema: average of repeated tests
Method: (§1) Inflammatory plantar oedema was provided by the subplantar injection of 0.1 ml. of 5% kaoline or 0.5% carrageenine on female rats each weighing 110 to 130 g., starved for 24 hours. The dorsoplantar diameter of the test animals was measured with a double-armed instrument prior to the administration of the phlogistic (basic value) and at regular intervals (at 2, 3.5 and 5 hours for kaoline and at 1.5, 3 and 4.5 hours for carrageenine) after the administration of the phlogistic. […] The treatment was always carried out 1 hour before the administration of the phlogistic. The animals belonging to the control group received suspending agent only. In order to ensure a uniform hydration grade, 1 ml. of tap water was administered through a stomach tube to the animals simultaneously with the administration of the active agent. During the test period the animals were allowed to consume water ad libitum.
(§2) The effect was calculated from the difference of the increase in paw diameter observed in the treated and control groups. The daga are given as percentage efficiacy.
(§3) The significance level was examined by Student's t test. The significance levels are marked by asterisks; the values of the repeated tests are given separately.

cotton granuloma = experiment: Cotton granuloma, comparison with Indomethacine (Table 6); assay type: in vivo, rat; conditions: male rats, oral daily 4 mg./kg., 7 days, p 0.001
Method: Two cotton beads, each weighing 23 to 27 mg., were implanted under the dorsal skin of the animals in aether narcosis, under semisterile conditions, along both sides of the vertebral column. The compound under examination was administered twice a day for 7 days in oral dosages of 0.2 ml./100 g. body weight, in a suspension formed with 1% methyl cellulose. On the 8th day the animals were killed by etheral overnarcosis, the granulomes were removed, dried at 50° C for 5 hours, and then weighed. The animals belonging to the control group were treated similarly, but they received suspending agent only. The percentage efficiacy was calculated from the weight differences of the granuloma tissues observed for the treated and control groups. The significance was examined by the t test.

kaoline oedema = experiment: Rat paw oedema, kaoline (Table 4'); assay type: in vivo; conditions: female rats; for Effect % (average), inhibition of kaoline oedema: average of repeated tests
Method: as §1, §2, §3

rats = experiment: Ulcerogeneous action on rats, comparison with Indomethacine (Table 3'); conditions: male rats, 5 days
[1] = Toxicity on mice after oral administration, single dosage (Table 1'); assay type: in vivo; conditions: mouse, in vivo, po; male mice, p.o., 168 hours; read-out: LD50
Method: (§4) The tests were carried out on male mice weighing 25 to 30 g., not starved previously. The compounds were administered in a dosage of 0.2 ml. of suspension per 10 g. body weight. The individual dosages indicated in Table 1' were administered to 10 mice each. The given amount of active agent was added in a single dosage, and the animals were dept under observation for 7 days (= 168 hours). The number of deceased animals was recorded daily.
(§5) The LD50 values were calculated according to the Litchfied-Wilcoxon method, by also taking into account the number of animals perished within 168 hours from the administration.

mice = experiment: as above; assay type: in vivo; conditions: male mice
Method: as §4, §5

SMILES: COc1ccc2c(c1)c(CC(=O)O)c(C)n2C(=O)c1ccc(Cl)cc1 [Indomethacine, reference compound]
- Effect %, writhing (writhing syndrome; p.o. 5 mg./kg., 2 hours): 58.2% and 61.1%
- Effect % average, writhing (writhing syndrome; p.o. 5 mg./kg., 2 hours): 59.6%
- Effect %, writhing (writhing syndrome; p.o. 5 mg./kg., 4 hours): 65.7% and 43.7%
- Effect % average, writhing (writhing syndrome; p.o. 5 mg./kg., 4 hours): 54.7%
- Effect %, writhing (writhing syndrome; p.o. 12.5 mg./kg., 2 hours): 73.6% and 67.2%
- Effect % average, writhing (writhing syndrome; p.o. 12.5 mg./kg., 2 hours): 70.4%
- Effect %, writhing (writhing syndrome; p.o. 12.5 mg./kg., 4 hours): 85.8% and 70.0%
- Effect % average, writhing (writhing syndrome; p.o. 12.5 mg./kg., 4 hours): 77.9%
- Effect %, inhibition of carrageenine oedema (carrageenine oedema; 1.5 hours): 24.1% and 20.6%
- Effect % (average), inhibition of carrageenine oedema (carrageenine oedema; 1.5 hours): 22.3%
- Effect %, inhibition of carrageenine oedema (carrageenine oedema; 3 hours): 32.9% and 28.8%
- Effect % (average), inhibition of carrageenine oedema (carrageenine oedema; 3 hours): 30.8%
- Effect %, inhibition of carrageenine oedema (carrageenine oedema; 4.5 hours): 19.8% and 20.9%
- Effect % (average), inhibition of carrageenine oedema (carrageenine oedema; 4.5 hours): 20.3%
- Effect %, cotton granuloma (cotton granuloma): 36.0%
- Effect %, inhibition of kaoline oedema (kaoline oedema; p.o. 10 mg./kg., 2 hours): 14.7% and 19.7%
- Effect % (average), inhibition of kaoline oedema (kaoline oedema; p.o. 10 mg./kg., 2 hours): 17.2%
- Effect %, inhibition of kaoline oedema (kaoline oedema; p.o. 10 mg./kg., 3.5 hours): 19.5% and 27.6%
- Effect % (average), inhibition of kaoline oedema (kaoline oedema; p.o. 10 mg./kg., 3.5 hours): 23.5%
- Effect %, inhibition of kaoline oedema (kaoline oedema; p.o. 10 mg./kg., 5 hours): 21.2% and 27.2%
- Effect % (average), inhibition of kaoline oedema (kaoline oedema; p.o. 10 mg./kg., 5 hours): 24.2%
- Effect %, inhibition of kaoline oedema (kaoline oedema; p.o. 25 mg./kg., 2 hours): 33.7% and 32.7%
- Effect % (average), inhibition of kaoline oedema (kaoline oedema; p.o. 25 mg./kg., 2 hours): 33.2%
- Effect %, inhibition of kaoline oedema (kaoline oedema; p.o. 25 mg./kg., 3.5 hours): 35.1% and 37.1%
- Effect % (average), inhibition of kaoline oedema (kaoline oedema; p.o. 25 mg./kg., 3.5 hours): 36.1%
- Effect %, inhibition of kaoline oedema (kaoline oedema; p.o. 25 mg./kg., 5 hours): 32.1% and 44.4%
- Effect % (average), inhibition of kaoline oedema (kaoline oedema; p.o. 25 mg./kg., 5 hours): 38.2%
- Animals having lesions on the intestines (rats; oral 4 mg./kg.): 5%
- Perishment (rats; oral 4 mg./kg.): 0/20
- Survivals (rats; oral 4 mg./kg.): 20
- Ulcer index (rats; oral 4 mg./kg.): 0.45
- Ulcer number (rats; oral 4 mg./kg.): 0.1
- Animals having lesions on the intestines (rats; oral 8 mg./kg.): 40%
- Perishment (rats; oral 8 mg./kg.): 10/20
- Survivals (rats; oral 8 mg./kg.): 10
- Ulcer index (rats; oral 8 mg./kg.): 0.3
- Ulcer number (rats; oral 8 mg./kg.): 0
- LD50 at 168 h [1]: 140 mg/kg
- Perished animals/treated animals (mice; oral 50 mg./kg., 24 h): 0/10
- Perished animals/treated animals (mice; oral 50 mg./kg., 48 h): 0/10
- Perished animals/treated animals (mice; oral 50 mg./kg., 72 h): 0/10
- Perished animals/treated animals (mice; oral 50 mg./kg., 96 h): 0/10
- Perished animals/treated animals (mice; oral 50 mg./kg., 120 h): 0/10
- Perished animals/treated animals (mice; oral 50 mg./kg., 144 h): 0/10
- Perished animals/treated animals (mice; oral 50 mg./kg., 168 h): 0/10
- Perished animals/treated animals (mice; oral 150 mg./kg., 24 h): 0/10
- Perished animals/treated animals (mice; oral 150 mg./kg., 48 h): 0/10
- Perished animals/treated animals (mice; oral 150 mg./kg., 72 h): 0/10
- Perished animals/treated animals (mice; oral 150 mg./kg., 96 h): 2/10
- Perished animals/treated animals (mice; oral 150 mg./kg., 120 h): 4/10
- Perished animals/treated animals (mice; oral 150 mg./kg., 144 h): 6/10
- Perished animals/treated animals (mice; oral 150 mg./kg., 168 h): 6/10
- Perished animals/treated animals (mice; oral 300 mg./kg., 24 h): 0/10
- Perished animals/treated animals (mice; oral 300 mg./kg., 48 h): 0/10
- Perished animals/treated animals (mice; oral 300 mg./kg., 72 h): 4/10
- Perished animals/treated animals (mice; oral 300 mg./kg., 96 h): 6/10
- Perished animals/treated animals (mice; oral 300 mg./kg., 120 h): 8/10
- Perished animals/treated animals (mice; oral 300 mg./kg., 144 h): 10/10
- Perished animals/treated animals (mice; oral 300 mg./kg., 168 h): 10/10
- Perished animals/treated animals (mice; oral 500 mg./kg., 24 h): 0/10
- Perished animals/treated animals (mice; oral 500 mg./kg., 48 h): 2/10
- Perished animals/treated animals (mice; oral 500 mg./kg., 72 h): 4/10
- Perished animals/treated animals (mice; oral 500 mg./kg., 96 h): 7/10
- Perished animals/treated animals (mice; oral 500 mg./kg., 120 h): 9/10
- Perished animals/treated animals (mice; oral 500 mg./kg., 144 h): 10/10
- Perished animals/treated animals (mice; oral 500 mg./kg., 168 h): 10/10
- Perished animals/treated animals (mice; oral 700 mg./kg., 24 h): 1/10
- Perished animals/treated animals (mice; oral 700 mg./kg., 48 h): 5/10
- Perished animals/treated animals (mice; oral 700 mg./kg., 72 h): 5/10
- Perished animals/treated animals (mice; oral 700 mg./kg., 96 h): 7/10
- Perished animals/treated animals (mice; oral 700 mg./kg., 120 h): 9/10
- Perished animals/treated animals (mice; oral 700 mg./kg., 144 h): 9/10
- Perished animals/treated animals (mice; oral 700 mg./kg., 168 h): 10/10
- Perished animals/treated animals (mice; oral 900 mg./kg., 24 h): 1/10
- Perished animals/treated animals (mice; oral 900 mg./kg., 48 h): 4/10
- Perished animals/treated animals (mice; oral 900 mg./kg., 72 h): 6/10
- Perished animals/treated animals (mice; oral 900 mg./kg., 96 h): 8/10
- Perished animals/treated animals (mice; oral 900 mg./kg., 120 h): 10/10
- Perished animals/treated animals (mice; oral 900 mg./kg., 144 h): 10/10
- Perished animals/treated animals (mice; oral 900 mg./kg., 168 h): 10/10
